Data on 11 compounds can be found in ChEMBL document CHEMBL1201862, “PubChem BioAssay data set” (2004).

Each structure is given as a SMILES string.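 Cells were grown in 96-well plates and exposed to each compound for 48 hours at five concentrations; endpoints were interpolated linearly between bracketing concentrations, or set to the highest concentration if not reached. Abbreviation: GI50, concentration required for 50% inhibition of growth.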 The source made the active and inactive calls. Rule as the data show it: active = GI50 up to about 1.1 µM and inactive = higher. Bounds are passed on as bounds.

Some test systems named below: NCI-H226; COLO 205; HOP-62; LOX IMVI; OVCAR-3; RXF 393; MOLT-4; HT-29; HL-60; ACHN; SK-MEL-28; SR; A549; M14; Malme-3M; KM12; T47D; CAKI-1.
Holding throughout (assay): DTP human tumour cell line panel, 48 h

`CC(C)C(O)(C(C)C)C(C)C`: the GI50 in the experiment on NCI-H226, in the experiment with COLO 205, in the experiment on HOP-62, in the experiment on LOX IMVI, in the experiment with OVCAR-3 and with RXF 393 was > 100 µM (inactive) each time. Moreover, the GI50 with MOLT-4, in the experiment with HT-29, with HL-60, with ACHN, in the experiment with SK-MEL-28 and with SR was > 100 µM (inactive) in each case. Besides, the GI50 in the experiment on A549, in the experiment on M14, in the experiment on Malme-3M, in the experiment on KM12, with T47D and with CAKI-1 was > 100 µM (inactive) throughout.

For `C/C(=N\O)c1ccc(Nc2c3ccccc3nc3occc23)cc1`, the GI50 (in general, the concentration at which growth is held to half of that of the control) in the experiment with NCI-H226 was 2.99 µM (inactive); with COLO 205 it was 0.156 µM (active); with HOP-62, 0.436 µM (active); in the experiment with LOX IMVI it was 0.29 µM (active); with OVCAR-3, 0.695 µM (active); in the experiment with RXF 393, 0.0352 µM (active). In addition, the 50% growth inhibitory concentration (GI50) with MOLT-4 is 0.169 µM (active); with HT-29, 0.199 µM (active); in the experiment with HL-60, 0.154 µM (active); in the experiment on ACHN it was 0.302 µM (active); in the experiment with SK-MEL-28, 0.659 µM (active); with SR, 0.023 µM (active). Further, the GI50 in the experiment on A549 was 0.263 µM (active); with M14, 0.236 µM (active); in the experiment with Malme-3M, 11.5 µM (inactive); with KM12, 0.231 µM (active); in the experiment on T47D, 0.553 µM (active); in the experiment on CAKI-1, 0.231 µM (active).

For `CCOC(=O)c1cc2ncccc2c2ccccc12`, the GI50 with NCI-H226, in the experiment with COLO 205, with HOP-62, with LOX IMVI, in the experiment on OVCAR-3 and with RXF 393 was > 100 µM (inactive) each time. In addition, the GI50 with MOLT-4, in the experiment on HT-29, with HL-60, in the experiment on ACHN, in the experiment with SK-MEL-28 and in the experiment with SR was > 100 µM (inactive) each time. Also, the GI50 with A549, with M14, in the experiment on Malme-3M, in the experiment on KM12, in the experiment on T47D and with CAKI-1 was > 100 µM (inactive) each time.

Turning to `CN1CCN(C(=O)CCNC(=O)Cc2ccc(C(=O)c3ccccc3)cc2)CC1`, the GI50 with NCI-H226 was > 100 µM (inactive); in the experiment with COLO 205, 74 µM (inactive); in the experiment on HOP-62, > 100 µM (inactive); in the experiment with LOX IMVI it was > 100 µM (inactive); in the experiment with OVCAR-3, > 100 µM (inactive); with RXF 393, > 100 µM (inactive). Moreover, the GI50 in the experiment with MOLT-4 is > 100 µM (inactive); in the experiment on HT-29 it was > 100 µM (inactive); in the experiment with HL-60 it was 58.3 µM (inactive); in the experiment with ACHN it was > 100 µM (inactive); with SK-MEL-28, > 100 µM (inactive); with SR, > 100 µM (inactive). Besides, the GI50 in the experiment with A549 was > 100 µM (inactive); in the experiment on M14 it was > 100 µM (inactive); with Malme-3M, > 100 µM (inactive); with KM12, 48.6 µM (inactive); in the experiment on T47D, > 100 µM (inactive); in the experiment on CAKI-1, > 100 µM (inactive).

With `CS/C(N)=N/c1cccc2ccccc12`, the GI50 in the experiment on NCI-H226, in the experiment with COLO 205, in the experiment with HOP-62, in the experiment with LOX IMVI, in the experiment with OVCAR-3 and with RXF 393 was > 10 µM (inactive) throughout. Besides, the GI50 in the experiment on MOLT-4, in the experiment with HT-29, in the experiment with HL-60, in the experiment with ACHN, in the experiment on SK-MEL-28 and in the experiment with SR was > 10 µM (inactive) each time. The GI50 in the experiment on A549, in the experiment with M14, with Malme-3M, with KM12, with T47D and with CAKI-1 was > 10 µM (inactive) each time.

Turning to `COC1(C)OC[C@@]2(C)OC(C)C1(C)C2O[Si](C(C)C)(C(C)C)C(C)C` (stereo partly drawn), the GI50 with NCI-H226 is 19.5 µM (inactive); with COLO 205, 17.8 µM (inactive); in the experiment with HOP-62, 28.6 µM (inactive); with LOX IMVI it was 20.7 µM (inactive); with OVCAR-3 it was 20.9 µM (inactive); with RXF 393 it was 27 µM (inactive). Moreover, the GI50 in the experiment on MOLT-4 is 21.2 µM (inactive); in the experiment with HT-29, 28.7 µM (inactive); in the experiment with HL-60 it was 17.5 µM (inactive); in the experiment with ACHN, 25.2 µM (inactive); in the experiment with SK-MEL-28, 38.4 µM (inactive); in the experiment with SR it was 27.6 µM (inactive). For the same compound, the GI50 was 32.2 µM (inactive) with A549; 37.6 µM (inactive) in the experiment on M14; 18 µM (inactive) in the experiment with Malme-3M; 31.8 µM (inactive) in the experiment on KM12; 27.6 µM (inactive) in the experiment with T47D; 28.6 µM (inactive) in the experiment with CAKI-1.

On to `C=C(Br)CN(C(C)=O)C1CCCCC1`, for which the GI50 in the experiment on NCI-H226, in the experiment on COLO 205, in the experiment with HOP-62, with LOX IMVI, in the experiment on OVCAR-3 and in the experiment on RXF 393 was > 100 µM (inactive) throughout. In addition, the GI50 in the experiment with MOLT-4, with HT-29, in the experiment on HL-60, with ACHN, in the experiment with SK-MEL-28 and in the experiment with SR was > 100 µM (inactive) in each case. The GI50 in the experiment on A549, with M14, in the experiment with Malme-3M, in the experiment with KM12, in the experiment on T47D and in the experiment on CAKI-1 was > 100 µM (inactive) each time.

On to `CC(=O)O[C@H]1C(=O)[C@@]2(C)[C@H]([C@H](OC(=O)c3ccncc3)[C@]3(O)C[C@H](OC(=O)[C@H](O)[C@@H](NC(=O)c4ccccc4)c4ccccc4)C(C)=C1C3(C)C)[C@]1(OC(C)=O)CO[C@@H]1C[C@@H]2O`, for which the GI50 is 16.1 µM (inactive) with NCI-H226; 2.08 µM (inactive) in the experiment on COLO 205; > 12.4 µM (inactive) in the experiment on HOP-62; 1.42 µM (inactive) with LOX IMVI; 1.25 µM (inactive) in the experiment on OVCAR-3; 7.01 µM (inactive) in the experiment on RXF 393. The GI50 is 1.39 µM (inactive) in the experiment on MOLT-4; 1.42 µM (inactive) with HT-29; 0.471 µM (active) in the experiment on HL-60; > 22.3 µM (inactive) with ACHN; > 11.6 µM (inactive) in the experiment on SK-MEL-28; 1.09 µM (active) in the experiment with SR. Besides, the GI50 in the experiment on A549 is 18 µM (inactive); in the experiment with M14 it was 7.06 µM (inactive); in the experiment on Malme-3M, 2.31 µM (inactive); with KM12, 2.61 µM (inactive); in the experiment on T47D it was > 5.94 µM (inactive); with CAKI-1, > 25 µM (inactive).

As to `NC(=O)C(=CNC(=S)Nc1ccccc1)C(N)=O`, the GI50 is > 100 µM (inactive) with NCI-H226; > 100 µM (inactive) with COLO 205; > 100 µM (inactive) in the experiment on HOP-62; > 100 µM (inactive) with LOX IMVI; 1.05 µM (active) in the experiment on OVCAR-3; > 100 µM (inactive) in the experiment on RXF 393. For the same compound, the GI50 with MOLT-4, in the experiment with HT-29, in the experiment with HL-60, in the experiment on ACHN, in the experiment with SK-MEL-28 and in the experiment on SR was > 100 µM (inactive) each time. Further, the GI50 with A549 is > 100 µM (inactive); with M14, > 100 µM (inactive); in the experiment with Malme-3M, > 100 µM (inactive); in the experiment on KM12, > 100 µM (inactive); in the experiment on T47D it was 97.7 µM (inactive); in the experiment with CAKI-1, > 100 µM (inactive).

For the compound `N=C(N)N/N=C/c1c(-c2ccccc2[N+](=O)[O-])nc2sccn12`, the GI50 in the experiment on NCI-H226 is 17.4 µM (inactive); in the experiment on COLO 205, 15.8 µM (inactive); in the experiment on HOP-62 it was 25.7 µM (inactive); in the experiment on LOX IMVI, 19.9 µM (inactive); with OVCAR-3, 24.9 µM (inactive); in the experiment with RXF 393, 12.6 µM (inactive). For the same compound, the GI50 in the experiment on MOLT-4 was 17.7 µM (inactive); in the experiment on HT-29 it was 27.7 µM (inactive); in the experiment with HL-60, 16.6 µM (inactive); with ACHN, 39.3 µM (inactive); in the experiment with SK-MEL-28, 30.8 µM (inactive); in the experiment with SR it was 14.4 µM (inactive). The GI50 with A549 was 34.1 µM (inactive); in the experiment on M14, 16.7 µM (inactive); with Malme-3M, 15.7 µM (inactive); with KM12 it was 20.4 µM (inactive); with T47D, 18.3 µM (inactive); in the experiment on CAKI-1, 64.9 µM (inactive).

For `O=[N+]([O-])C[C@@]12O[C@]3(O)C4C5CC(C6C5C3C61)C42` (stereo partly drawn), the GI50 with NCI-H226, in the experiment on COLO 205, in the experiment with HOP-62, in the experiment on LOX IMVI, with OVCAR-3 and with RXF 393 was > 100 µM (inactive) throughout. Besides, the GI50 in the experiment with MOLT-4 was > 100 µM (inactive); with HT-29, > 100 µM (inactive); in the experiment on HL-60 it was > 100 µM (inactive); in the experiment on ACHN it was > 100 µM (inactive); with SK-MEL-28, > 100 µM (inactive); in the experiment with SR it was 80.2 µM (inactive). Besides, the GI50 in the experiment with A549, with M14, in the experiment on Malme-3M, in the experiment with KM12, in the experiment on T47D and in the experiment on CAKI-1 was > 100 µM (inactive) throughout.
